Reference: ChEMBL document CHEMBL1909294, “Translating clinical findings into knowledge in drug safety evaluation--drug induced liver injury prediction system (DILIps)” (PLoS Comput Biol, 2011)
Where a name gives a salt, the structure may show the parent alone.

How the values were obtained:
Hepatotoxicity [1] = system: Hepatotoxicity;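 for DILI positive/negative: binary label assigned from drug-induced liver injury observed in pharmaceutical company records, forming the validation set for the DILIps prediction system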;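 for HepSE Combined Scores: combined hepatic side effect score as listed in the training data of the Drug Induced Liver Injury Prediction System (DILIps)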;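 for HepSE elevated liver function tests: hepatic side effect score for raised liver function tests, as recorded in the DILIps training set used for predicting drug-induced liver injury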; for HepSE hepatic failure: call rule not given here;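 for HepSE hepatic necrosis: score of hepatic side effects for hepatic necrosis, drawn from the training data of DILIps, a prediction system for drug-induced liver injury; call rule not given here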;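 for HepSE liver function tests abnormal: hepatic side effect score taken from the DILIps (drug-induced liver injury prediction system) training data, here covering abnormal liver function test findings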
Hepatotoxicity [2] = system: Hepatotoxicity; remark: listed apart in the source;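 for DILI positive/negative: binary label assigned from drug-induced liver injury observed in pharmaceutical company records, forming the validation set for the DILIps prediction system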;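 for HepSE Combined Scores: combined hepatic side effect score as listed in the training data of the Drug Induced Liver Injury Prediction System (DILIps)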;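 for HepSE elevated liver function tests: hepatic side effect score for raised liver function tests, as recorded in the DILIps training set used for predicting drug-induced liver injury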; for HepSE hepatic failure: call rule not given here;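 for HepSE hepatic necrosis: score of hepatic side effects for hepatic necrosis, drawn from the training data of DILIps, a prediction system for drug-induced liver injury; call rule not given here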;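 for HepSE liver function tests abnormal: hepatic side effect score taken from the DILIps (drug-induced liver injury prediction system) training data, here covering abnormal liver function test findings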
Hepatotoxicity [3] = system: Hepatotoxicity; remark: listed apart in the source;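 for DILI positive/negative: binary label assigned from drug-induced liver injury observed in pharmaceutical company records, forming the validation set for the DILIps prediction system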;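 for HepSE Combined Scores: combined hepatic side effect score as listed in the training data of the Drug Induced Liver Injury Prediction System (DILIps)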;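 for HepSE elevated liver function tests: hepatic side effect score for raised liver function tests, as recorded in the DILIps training set used for predicting drug-induced liver injury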; for HepSE hepatic failure: call rule not given here;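 for HepSE hepatic necrosis: score of hepatic side effects for hepatic necrosis, drawn from the training data of DILIps, a prediction system for drug-induced liver injury; call rule not given here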;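 for HepSE liver function tests abnormal: hepatic side effect score taken from the DILIps (drug-induced liver injury prediction system) training data, here covering abnormal liver function test findings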
Hepatotoxicity [4] = system: Hepatotoxicity; remark: listed apart in the source;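 for DILI positive/negative: binary label assigned from drug-induced liver injury observed in pharmaceutical company records, forming the validation set for the DILIps prediction system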;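 for HepSE Combined Scores: combined hepatic side effect score as listed in the training data of the Drug Induced Liver Injury Prediction System (DILIps)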;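 for HepSE elevated liver function tests: hepatic side effect score for raised liver function tests, as recorded in the DILIps training set used for predicting drug-induced liver injury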; for HepSE hepatic failure: call rule not given here;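 for HepSE hepatic necrosis: score of hepatic side effects for hepatic necrosis, drawn from the training data of DILIps, a prediction system for drug-induced liver injury; call rule not given here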;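 for HepSE liver function tests abnormal: hepatic side effect score taken from the DILIps (drug-induced liver injury prediction system) training data, here covering abnormal liver function test findings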
Hepatotoxicity [5] = system: Hepatotoxicity; remark: listed apart in the source; for HepSE hepatic failure: call rule not given here
Hepatotoxicity [6] = system: Hepatotoxicity; remark: listed apart in the source; for HepSE hepatic failure: call rule not given here
Hepatotoxicity [7] = system: Hepatotoxicity; remark: listed apart in the source
Hepatotoxicity [8] = system: Hepatotoxicity; remark: listed apart in the source
Hepatotoxicity [9] = system: Hepatotoxicity; remark: listed apart in the source
Hepatotoxicity [10] = system: Hepatotoxicity; remark: listed apart in the source
Hepatotoxicity [11] = system: Hepatotoxicity; remark: listed apart in the source
Hepatotoxicity [12] = system: Hepatotoxicity; remark: listed apart in the source
Hepatotoxicity [13] = system: Hepatotoxicity; remark: listed apart in the source
Hepatotoxicity [14] = system: Hepatotoxicity; remark: listed apart in the source
Hepatotoxicity [15] = system: Hepatotoxicity; remark: listed apart in the source

Compound	DILI positive/negative (Hepatotoxicity [1])	also measured
CC[N+](C)(C)c1cccc(O)c1.[Cl-] [EDROPHONIUM CHLORIDE]	0	–
CC1(c2ccccc2)Cc2cc(OCC(=O)O)c(Cl)c(Cl)c2C1=O (configuration not stated) [INDACRINONE]	1	–
C=C1CC[C@@]2(O)[C@H]3Cc4ccc(O)c5c4[C@@]2(CCN3CC2CC2)[C@H]1O5	0	–
CN1CCN(C(c2ccccc2)c2ccccc2)CC1 [CYCLIZINE]	1	–
Cl.Cl.O=C(CCN1CCN2CCCC2C1)N1c2ccccc2Sc2ccc(Cl)cc21 (configuration not stated) [AZACLORZINE HYDROCHLORIDE]	1	–
C=C1[C@@H]2CCC3[C@@](CC[C@@H]4[C@H](C(=O)O)C[C@@H](O[C@@H]5O[C@H](CO)[C@@H](OS(=O)(=O)[O-])[C@H](OS(=O)(=O)[O-])[C@H]5OC(=O)CC(C)C)C[C@@]34C)(C2)[C@@H]1O.[K+].[K+] (some centres not stated) [ATRACTYLOSIDE]	1	–
CC(=O)c1ccc(S(=O)(=O)NC(=O)NC2CCCCC2)cc1 [ACETOHEXAMIDE]	1	–
N[C@H](C(=O)O)[C@@H]1CC(Cl)=NO1 [ACIVICIN]	0	–
CC1(COc2ccc(CC3SC(=O)NC3=O)cc2)CCCCC1 (configuration not stated) [CIGLITAZONE]	1	–
CC(N)C(O)c1ccccc1.Cl (configuration not stated) [PHENYLPROPANOLAMINE HYDROCHLORIDE]	0	–
FERROUS SULFATE	0	–
Cn1nnnc1SCC1=C(C(=O)[O-])N2C(=O)[C@@H](NC(=O)[C@H](O)c3ccccc3)[C@H]2SC1.[Na+] [CEFAMANDOLE SODIUM]	1	–
CCOC(=O)C1(c2ccccc2)CCN(CCc2ccc(N)cc2)CC1.Cl [ANILERIDINE HYDROCHLORIDE]	0	–
CC(=O)CC(c1ccc([N+](=O)[O-])cc1)c1c(O)c2ccccc2oc1=O (configuration not stated) [ACENOCOUMAROL]	1	–
CCN(CC)CCNc1ccc(CO)c2sc3ccccc3c(=O)c12 [HYCANTHONE]	1	–
CCN1CCN(C(=O)N[C@@H](C(=O)N[C@@H]2C(=O)N3C(C(=O)O)=C(CSc4nnnn4C)CS[C@H]23)c2ccc(O)cc2)C(=O)C1=O.O.O [CEFOPERAZONE DIHYDRATE]	0	–
C#C[C@]1(OC(C)=O)CC[C@H]2[C@@H]3CCC4=C[C@@H](OC(C)=O)CC[C@@H]4[C@H]3CC[C@@]21C [ETHYNODIOL DIACETATE]	1	–
COc1ccc(OC)c(C(O)C(C)N)c1.Cl (configuration not stated) [METHOXAMINE HYDROCHLORIDE]	0	–
CC[C@]1(O)C[C@@H]2CN(CCc3c([nH]c4ccccc34)[C@@](C(=O)OC)(c3cc4c(cc3OC)N(C)[C@H]3[C@@](O)(C(=O)OC)[C@H](OC(C)=O)[C@]5(CC)C=CCN6CC[C@]43[C@@H]65)C2)C1.O=S(=O)(O)O [VINBLASTINE SULFATE]	0	–
C=CCO [ALLYL ALCOHOL]	1	–
CN(CCCCCCCCCCN(C)C(=O)Oc1cccc([N+](C)(C)C)c1)C(=O)Oc1cccc([N+](C)(C)C)c1.[Br-].[Br-] [DEMECARIUM BROMIDE]	1	–
C=CCOC=O [ALLYL FORMATE]	1	–
O=C1NC(=O)C(O)(O)C(=O)N1	0	–
COc1cc2c(c3oc(=O)c4c(c13)CCC4=O)[C@@H]1C=CO[C@@H]1O2 [AFLATOXIN]	1	–
CN[C@@H](C)[C@@H](O)c1ccccc1.Cl [PSEUDOEPHEDRINE HYDROCHLORIDE]	0	–
CN(C)CCn1nnnc1SCC1=C(C(=O)O)N2C(=O)[C@@H](NC(=O)Cc3csc(N)n3)[C@H]2SC1.Cl.Cl [CEFOTIAM HYDROCHLORIDE]	1	–
C[C@@H](CO)NC(=O)[C@@H]1C=C2c3cccc4[nH]cc(c34)C[C@H]2N(C)C1.O=C(O)/C=C\C(=O)O [ERGONOVINE MALEATE]	0	–

Compound	DILI positive/negative (Hepatotoxicity [1])	also measured
Cc1c(F)c(N2CCNC(C)C2)cc2c1c(=O)c(C(=O)O)cn2C1CC1 (configuration not stated) [GREPAFLOXACIN]	–	DILI positive/negative (Hepatotoxicity [1]; Liver): 1
COc1cc(CNC(=O)CCCC/C=C/C(C)C)ccc1O [CAPSAICIN]	0	–
CN1c2ccccc2C(NCCCCCCC(=O)O)c2ccc(Cl)cc2S1(=O)=O (configuration not stated) [TIANEPTINE]	1	–
CCO[C@@H](Cc1ccc(OCCN2c3ccccc3Oc3ccccc32)cc1)C(=O)O [RAGAGLITAZAR]	0	–
AUROTHIOGLUCOSE	1	–
CC(=O)OCC1=C(C(=O)[O-])N2C(=O)[C@@H](NC(=O)CSc3ccncc3)[C@H]2SC1.[Na+] [CEPHAPIRIN SODIUM]	0	–
CN(C)[C@@H]1C(O)=C(C(N)=O)C(=O)[C@@]2(O)C(O)=C3C(=O)c4c(O)ccc(Cl)c4[C@@](C)(O)[C@H]3C[C@@H]12.Cl [CHLORTETRACYCLINE HYDROCHLORIDE]	1	–
CC1(C)[C@@H](OC(=O)CCC(=O)[O-])CC[C@]2(C)[C@H]3C(=O)C=C4[C@@H]5C[C@@](C)(C(=O)[O-])CC[C@]5(C)CC[C@@]4(C)[C@]3(C)CC[C@@H]12.[Na+].[Na+] [CARBENOXOLONE SODIUM]	0	–
LACTOSE, ANHYDROUS	0	–
Cc1cc(CC(=O)O)n(C)c1C(=O)c1ccc(Cl)cc1 [ZOMEPIRAC]	0	–
C=C1c2cccc(O)c2C(=O)C2=C(O)[C@]3(O)C(=O)C(C(N)=O)=C(O)[C@@H](N(C)C)[C@@H]3[C@@H](O)[C@H]12.Cl [METHACYCLINE HYDROCHLORIDE]	1	–
COc1cccc(OC)c1C(=O)N[C@@H]1C(=O)N2[C@@H]1SC(C)(C)[C@@H]2C(=O)[O-].[Na+]	1	–
Cc1onc(-c2ccccc2Cl)c1C(=O)N[C@@H]1C(=O)N2[C@@H]1SC(C)(C)[C@@H]2C(=O)[O-].O.[Na+] [CLOXACILLIN SODIUM]	1	–
Brc1ccccc1 [BROMOBENZENE]	1	–
C#C[C@]1(O)CC[C@H]2[C@@H]3CCc4cc(O)ccc4[C@H]3CC[C@@]21C [ETHINYL ESTRADIOL]	1	–
O=C(O)c1ccncc1 [ISONICOTINIC ACID]	0	–
Cl.Cl.OCCN1CCN(CC/C=C2/c3ccccc3Sc3ccc(C(F)(F)F)cc32)CC1	–	DILI positive/negative (Hepatotoxicity [1]; Liver): 0
CCC1(c2ccccc2)C(=O)NC(=O)N(C)C1=O (configuration not stated) [MEPHOBARBITAL]	1	–
Nc1ncn([C@@H]2O[C@H](CO)[C@@H](O)[C@H]2O)c(=O)n1 [AZACITIDINE]	–	DILI positive/negative (Hepatotoxicity [1]; Liver): 1
O=C1NCN(c2ccccc2)C12CCN(CCCC(c1ccc(F)cc1)c1ccc(F)cc1)CC2	1	–
COc1ccc2[nH]cc(CCNC(C)=O)c2c1 [MELATONIN]	0	–
CC1CN(c2cc3c(cc2F)c(=O)c(C(=O)O)cn3-c2ccc(F)cc2F)CCN1 (configuration not stated) [TEMAFLOXACIN]	1	–
Br.COc1ccc2c(c1)[C@]13CCCC[C@@H]1[C@H](C2)N(C)CC3.O [DEXTROMETHORPHAN HYDROBROMIDE]	0	–
NC[C@H](O)c1ccc(O)c(O)c1 [NOREPINEPHRINE]	–	HepSE_liver function tests abnormal (Hepatotoxicity [2]): 0; HepSE_elevated liver function tests (Hepatotoxicity [3]): 0; HepSE_hepatic necrosis (Hepatotoxicity [4]): 0; HepSE_bilirubinemia (Hepatotoxicity [5]): 0; HepSE_Combined Scores (Hepatotoxicity [6]): 0; HepSE_hepatic failure (Hepatotoxicity [7]): 0; HepSE_liver disease (Hepatotoxicity [8]): 0; HepSE_liver fatty (Hepatotoxicity [9]): 0; HepSE_cholecystitis (Hepatotoxicity [10]): 0; HepSE_hepatomegaly (Hepatotoxicity [11]): 0; HepSE_jaundice (Hepatotoxicity [12]): 0; HepSE_hepatitis (Hepatotoxicity [13]): 0; HepSE_cholelithiasis (Hepatotoxicity [14]): 0; HepSE_cirrhosis (Hepatotoxicity [15]): 0
CN(CCOc1ccc(CC2SC(=O)NC2=O)cc1)c1ccccn1 (configuration not stated) [ROSIGLITAZONE]	–	HepSE_liver function tests abnormal (Hepatotoxicity [2]): 0; HepSE_elevated liver function tests (Hepatotoxicity [3]): 0; HepSE_hepatic necrosis (Hepatotoxicity [4]): 0; HepSE_bilirubinemia (Hepatotoxicity [5]): 1; HepSE_Combined Scores (Hepatotoxicity [6]): 3; HepSE_hepatic failure (Hepatotoxicity [7]): 1; HepSE_liver disease (Hepatotoxicity [8]): 0; HepSE_liver fatty (Hepatotoxicity [9]): 0; HepSE_cholecystitis (Hepatotoxicity [10]): 0; HepSE_hepatomegaly (Hepatotoxicity [11]): 0; HepSE_jaundice (Hepatotoxicity [12]): 0; HepSE_hepatitis (Hepatotoxicity [13]): 1; HepSE_cholelithiasis (Hepatotoxicity [14]): 0; HepSE_cirrhosis (Hepatotoxicity [15]): 0
CCOC(=O)C1=C(C)NC(C)=C(C(=O)OC)C1c1cccc(Cl)c1Cl (configuration not stated) [FELODIPINE]	–	HepSE_liver function tests abnormal (Hepatotoxicity [2]): 0; HepSE_elevated liver function tests (Hepatotoxicity [3]): 0; HepSE_hepatic necrosis (Hepatotoxicity [4]): 0; HepSE_bilirubinemia (Hepatotoxicity [5]): 0; HepSE_Combined Scores (Hepatotoxicity [6]): 1; HepSE_hepatic failure (Hepatotoxicity [7]): 0; HepSE_liver disease (Hepatotoxicity [8]): 0; HepSE_liver fatty (Hepatotoxicity [9]): 0; HepSE_cholecystitis (Hepatotoxicity [10]): 0; HepSE_hepatomegaly (Hepatotoxicity [11]): 0; HepSE_jaundice (Hepatotoxicity [12]): 0; HepSE_hepatitis (Hepatotoxicity [13]): 1; HepSE_cholelithiasis (Hepatotoxicity [14]): 0; HepSE_cirrhosis (Hepatotoxicity [15]): 0
